Measurements as given in patent US20170305984A1, “STATHERIN PEPTIDES” (THE UNIVERSITY OF WESTERN ONTARIO, priority 2014, published 2017).
“Also recorded” adds a separate entry of the source. Marks after values point to notes of the source that are not given here. Square brackets hold non-standard residues; d marks the D form. Ends that are not written are not given here. pS = N[C@@H](COP(=O)(O)O)C(=O)O

Tests used:
[1] = Enamel demineralization with chitosan nanoparticle coatings: calcium and phosphate released from enamel (Table 3); design: species or system human; conditions: for demineralization / acid protection (in words): coated enamel vs not coated control, pH 4.5, 12 days
Description: Demineralization studies are conducted using thin sections of human enamel. Enamel minerals were analyzed using microradiography. To determine the influence of selected chitosan encapsulated salivary proteins on enamel demineralization, resin-coated enamel sections were first exposed to solutions containing chitosan encapsulated salivary proteins at a concentration of 1.0 mg/ml for 2 h at 37° C. To mimic the acidic environment of dental caries, chitosan encapsulated salivary proteins and control sections were placed into individual tubes with 3 ml of a demineralization solution containing 2.2 mM CaCl2, 2.2 mM NaH2PO4, 5 mM acetic acid, a pH 4.5. The sample was incubated at 37° C. with gentle agitation for a period of 12 days. All solutions contained 3 mM sodium azide as a bacteriostatic agent. Immediately after the demineralization period, the specimens were extensively washed with distilled water and dried with filter paper. Mineral loss was evaluated by comparing the microradiography taken before and after exposure to the acidic conditions. Enamel pieces were prepared as described and coated with chitosan nanoparticles, DR-9 encapsulated in chitosan nanoparticles, DR-9, and 0.05% NaF (gold standard group). In some groups, parotid saliva was allowed to adsorb first on enamel species to mimic the AEP (Table 3). Adsorption was allowed to proceed for a period of 2 hours at 37° C. with gentle agitation. Enamel specimens were then washed with distilled water and immersed in a demineralization solution, pH 4.5 for 12 days. This solution was used to measure the amount of calcium and phosphate released from enamel.

[2] = Chitosan encapsulation rate, ELISA of remaining unencapsulated protein or peptide; type: physicochemical; conditions: encapsulation in chitosan nanoparticles
Text: Based on the optimized parameters for construction of chitosan micro- and nanoparticles, AEP was mixed directly with the chitosan solution. Chitosan micro- and nanoparticles were constructed, as described above, and the particles were characterized through Zeta sizing and SEM. Reverse Phase-High Performance Liquid Chromatography (RP-HPLC) and/or enzyme-linked immunosorbent assay (ELISA) was used to determine the degree of encapsulation by measuring the amount of free peptides, before and after the encapsulation procedure. Chitosan encapsulation of histatin 5, DR-9, RR-14 and bovine serum albumin was carried out to determine the chitosan encapsulation rate. ELISA assay assessed the remaining unencapsulated protein or peptide.

[3] = Enamel demineralization protection by constructed peptides: calcium and phosphate released from enamel (Example 1); design: species or system human; conditions: for Mean Ca Conc. (calcium released from human enamel) / Mean PO4 Conc. (phosphate released from human enamel): 1 mg/mL peptide 2 hours 37° C., then demineralization solution pH 4.5, 37° C., 12 days, mean ± SD; for Enamel demineralization protection / mineral loss (in words): versus distilled water control and other groups, ANOVA, Tukey
Text: Enamel sample preparation was done as previously described (Siqueira et. al. 2010, J Dent Res. 2010; 89: 626-630, the relevant contents of which are incorporated herein by reference). Briefly, human permanent first molars without defects were cleaned, rinsed, and sectioned. After having the roots removed, the crowns were sliced sagittally into 4 sections (each with a 300 μm thickness) using a diamond saw, followed by grinding to a thickness of 150 μm using sandpaper. Each specimen was coated with a layer of light-cured dental adhesive (3M ESPE Scotchbond™ Universal) and nail varnish, excluding an untouched 2 mm window on the natural surface enamel. Each specimen was submerged in 1 mg/mL construct peptide solution or distilled water (control group) and incubated for 2 hours at 37° C. After this period, the samples were then submerged in 1 mL of demineralization solution (0.05M acetic acid; 2.2 mM CaCl2; 2.2 mM NaH2PO4; pH 4.5) at 37° C. for 12 days. Afterward, they were rinsed thoroughly with distilled water and dried with filter paper to remove any remaining acid residue. The remaining 1 mL of acidic solution was used to assess the calcium and phosphate concentration released from enamel during the demineralization process. The calcium concentration of the solution was assessed using a quantitative colorimetric calcium determination assay (QuantiChrom™ Calcium Assay Kit, Bioassay Systems, Hayward, Calif., USA) with a UV-visible spectrophotometer to determine the optical density at a wavelength of 612 nm. The phosphate concentration was assessed using a colorimetric assay (PiColorLock™ Gold Detection System, Innova Biosciences, Cambridge, U.K.) and UV-visible spectrophotometer, to determine the optical density at a wavelength of 635 nm. All samples were analyzed in duplicate. Statistical analysis was performed with ANOVA and the Tukey Range Test.

[4] = Inhibition of spontaneous precipitation of supersaturated calcium phosphate solutions (Alizarin Red S, 570 nm); conditions: all test concentrations, compared to a group without any inhibitor; FIG. 4
Description: To investigate the ability of the chitosan encapsulated AEP proteins/peptides to prevent crystal growth, microtiter plates were coated with proteins/peptides in a HEPES buffer at RT for 1 h. The wells were washed followed by the addition of a solution containing phosphate (15 mM; pH 7.4), NaCl (150 mM) and CaCl2 (50 mM). The solutions were incubated for 4 h at room temperature, allowing the formation of hydroxyapatite crystals. After this period, the solution was removed, 5% Alizarin Red S (pH 4.2), was added, followed by cerylpyridinium chloride. Crystal production was analyzed spectrophotometrically at 570 nm.

[5] = all studied concentrations, compared to other native statherin peptides; p<0.05; cited from earlier work
[6] = adsorbed for 2 hrs at 37° C., demineralization solution pH 4.5 for 12 days, n = 10

Molecule: [F-].[Na+] [NaF]
- Calcium released from enamel [1, 6]: 0.30 ± 0.13 ^b mM
- Phosphate released from enamel [1, 6]: 0.17 ± 0.06 ^b mM
- demineralization / acid protection (in words) [1]: better acid protection

Molecule: Bovine Serum Albumin: model protein for chitosan encapsulation
- Encapsulation Efficiency [2]: 88.3%

Molecule: DSpSpEEKFLR (D[pS][pS]EEKFLR) [DR9]
- Mean Ca Conc. (calcium released from human enamel) [3]: 1.455 ± 2.13^B, C mM
- Mean PO4 Conc. (phosphate released from human enamel) [3]: 0.849 ± 1.80^B, C mM
- Encapsulation Efficiency [2]: 75.5%
- inhibition of calcium phosphate crystal growth [4]: statistically significant inhibition of calcium phosphate crystal growth
- demineralization / acid protection (in words) [1]: intermediary level of demineralization protection
- hydroxyapatite growth inhibition [5]: significant effect

Molecule: DSpSpEEKFLRDSpSpEEKFLR (D[pS][pS]EEKFLRD[pS][pS]EEKFLR) [DR9-DR9]
- Mean Ca Conc. (calcium released from human enamel) [3]: 0.581 ± 0.16^C mM
- Mean PO4 Conc. (phosphate released from human enamel) [3]: 0.514 ± 0.18^C mM
- Enamel demineralization protection / mineral loss (in words) [3]: lowest mineral loss; also recorded: amplified by DR9-DR9 when compared to single DR9 or statherin

Molecule: DSpSpEEKFLRRIGRFGYGYGPYQPVPEQPLYPQPYQPQYQQYTF (D[pS][pS]EEKFLRRIGRFGYGYGPYQPVPEQPLYPQPYQPQYQQYTF) [Statherin]
- Mean Ca Conc. (calcium released from human enamel) [3]: 1.117 ± 1.29^B, C mM
- Mean PO4 Conc. (phosphate released from human enamel) [3]: 0.681 ± 1.11^B, C mM

Molecule: DSpSpEEKFLRRKFHEKHHSHRGYR (D[pS][pS]EEKFLRRKFHEKHHSHRGYR) [DR9-RR14]
- Mean Ca Conc. (calcium released from human enamel) [3]: 3.132 ± 2.46^B mM
- Mean PO4 Conc. (phosphate released from human enamel) [3]: 2.282 ± 2.01^B mM
- Enamel demineralization protection / mineral loss (in words) [3]: intermediate value among the groups; also recorded: able to maintain the biological function of one of the precursor proteins, statherin

Molecule: DSpSpEEKFLRVPAGLRKFHEKHHSHRGYR (D[pS][pS]EEKFLRVPAGLRKFHEKHHSHRGYR) [DR9-VPAGL-RR14]
- Mean Ca Conc. (calcium released from human enamel) [3]: 4.755 ± 1.35^A mM
- Mean PO4 Conc. (phosphate released from human enamel) [3]: 3.917 ± 0.82^A mM
- Enamel demineralization protection / mineral loss (in words) [3]: did not provide any increased demineralization protection over the control

Molecule: DSpSpEEKFLRVPLSLRKFHEKHHSHRGYR (D[pS][pS]EEKFLRVPLSLRKFHEKHHSHRGYR) [DR9-VPLSL-RR14]
- Mean Ca Conc. (calcium released from human enamel) [3]: 4.106 ± 2.13^A mM
- Mean PO4 Conc. (phosphate released from human enamel) [3]: 3.159 ± 1.85^A mM
- Enamel demineralization protection / mineral loss (in words) [3]: did not provide any increased demineralization protection over the control

Molecule: Histatin 5
- Encapsulation Efficiency [2]: 82.9%

Molecule: RKFHEKHHSHRGYR [RR-14]
- Encapsulation Efficiency [2]: 93.1%
